This passage reports melting point results from patent US7423159B2, “Agent for preventing or treating neuropathy” (Takeda Pharmaceutical Company Limited, priority 2002, dated 2008).

The melting point is the temperature, or range, at which the solid turns liquid.

For the compound `Cc1cc2ncn(Cc3ccc(NC(=O)/C=C/c4cnn(C)c4-c4ccc(F)cc4)cc3)c2cc1C` [Example 172, (2E)-N-(4-[(5,6-Dimethyl-1H-benzimidazol-1-yl)methyl]phenyl}-3-[5-(4-fluorophenyl)-1-methyl-1H-pyrazol-4-yl]acrylamide], the melting point fell in the range of 279 to 280 °C. For `Cn1ncc(/C=C/C(=O)Nc2ccc([S+](C)[O-])cc2)c1-c1ccc(F)cc1` (stereo not drawn) [Example 217, (2E)-3-[5-(4-Fluorophenyl)-1-methyl-1H-pyrazol-4-yl]-N-[4-(methylsulfinyl)phenyl]acrylamide], the melting point was in the range of 260 to 261 °C. Next, `Cc1coc(Cc2ccc(NC(=O)/C=C/c3cnn(C)c3-c3ccc(F)cc3)cc2)n1` [Example 95, (2E)-3-[5-(4-Fluorophenyl)-1-methyl-1H-pyrazol-4-yl]-N-{4-[(4-methyl-1,3-oxazol-2-yl)methyl]phenyl}acrylamide]: 220 to 221 °C; `Cn1nnc(Cc2ccc(NC(=O)/C=C/c3cnn(C)c3-c3ccc(F)cc3)cc2)n1` [Example 102, (2E)-3-[5-(4-Fluorophenyl)-1-methyl-1H-pyrazol-4-yl]-N-{4-[(2-methyl-2H-tetrazol-5-yl)methyl]phenyl}acrylamide]: 159 to 161 °C. The compound `Cn1nnnc1[S+]([O-])Cc1ccc(NC(=O)/C=C/c2cnn(C)c2-c2ccc(F)cc2)cc1` (stereo not drawn) [Example 220, (2E)-3-[5-(4-Fluorophenyl)-1-methyl-1H-pyrazol-4-yl]-N-(4-{[(1-methyl-1H-tetrazol-5-yl)sulfinyl]methyl}phenyl)acrylamide] gave a melting point of 179 to 183 °C.

In the case of `CCc1nc(CCc2ccc(NC(=O)/C=C/c3cnn(C)c3-c3ccc(F)cc3)cc2)cs1` [Example 90, (2E)-N-{4-[2-(2-Ethyl-1,3-thiazol-4-yl)ethyl]phenyl}-3-[5-(4-fluorophenyl)-1-methyl-1H-pyrazol-4-yl]acrylamide], the melting point lay in the range of 190 to 191 °C. Next, `Cn1ncc(/C=C/C(=O)Nc2ccc(C[S+]([O-])C(C)(C)C)cc2)c1-c1ccc(F)cc1` (stereo not drawn) [Example 218, (2E)-N-{4-[(tert-Butylsulfinyl)methyl]phenyl}-3-[5-(4-fluorophenyl)-1-methyl-1H-pyrazol-4-yl]acrylamide]: 242 to 243 °C. Next, `Cn1ncc(/C=C/C(=O)Nc2ccc(CNC(=O)OC(C)(C)C)cc2)c1-c1ccc(F)cc1` [Example 170, tert-Butyl 4-({(2E)-3-[5-(4-fluorophenyl)-1-methyl-1H-pyrazol-4-yl]prop-2-enoyl]amino)benzylcarbamate]: 222 to 223 °C; `Cn1ncc(/C=C/C(=O)Nc2ccc(CNC(=O)c3ccccc3)cc2)c1-c1ccc(F)cc1` [Example 142, N-[4-({(2E)-3-[5-(4-Fluorophenyl)-1-methyl-1H-pyrazol-4-yl]prop-2-enoyl}amino)benzyl]benzamide]: 250 to 251 °C. Next, `CCOP(=O)(Cc1ccc(NC(=O)/C=C\c2cnn(C)c2-c2ccc(OC)cc2)cc1)OCC`: 187 to 188 °C. `CCOP(=O)(Cc1ccc(NC(=O)/C=C/c2cnn(C)c2-c2ccco2)cc1)OCC` gave a melting point of 195 to 196 °C.

`CCOP(=O)(Cc1ccc(NC(=O)/C=C/c2cnn(C)c2-c2cccc(F)c2)cc1)OCC` gave a melting point of 205 to 206 °C. As for `Cc1nc(Cc2ccc(NC(=O)/C=C/c3cnn(C)c3-c3ccc(F)cc3)cc2)cs1` [Example 100, (2E)-3-[5-(4-Fluorophenyl)-1-methyl-1H-pyrazol-4-yl]-N-{4-[(2-methyl-1,3-thiazol-4-yl)methyl]phenyl}acrylamide], the figure is 192 to 193 °C. As for `CC(=O)N(C)Cc1ccc(NC(=O)/C=C/c2cnn(C)c2-c2ccc(F)cc2)cc1` [Example 117, (2E)-N-(4-{[Acetyl(methyl)amino]methyl}phenyl)-3-[5-(4-fluorophenyl)-1-methyl-1H-pyrazol-4-yl]acrylamide], the figure is 192 to 193 °C; as for `COP(=O)(Cc1ccc(NC(=O)/C=C/c2cnn(C)c2-c2cccc(Cl)c2)cc1)OC`, 248 to 249 °C.
